Experimental findings from publication PMC6925343 (ACS chemical biology, 2019) are described below.

The subject of test [1] is RANBP3 Ser58/Ser126 phosphorylation. In words: RANBP3 Ser58/Ser126 phosphorylation in CSA treated HeLa cells, Western blot. The format is cell-based. The note with it: CSA 45 min, anti-pSer58/pSer126-RANBP3 antibody. A general note: A western blot detects proteins with antibodies after separation by electrophoresis.
Test [2] has as its system SMAD2 localization in HeLa cells. Particulars: CSA 45 min, n = 90 cells, three independent replicates.

With Cyclosporine A [CSA], the “increase of Ser58/Ser126 phosphorylation of RANBP3” value in test [1] is “approximately 2 fold”. The “total SMAD2 levels” value in test [2] is reported as “not changed”.
